Results on six molecules are retold here after PMC11224556, “Next-generation of BBQ analogues that selectively target breast cancer” (Frontiers in Chemistry, 2024).

One series deals with T1, AhR (Homo sapiens, UniProt P35869).
T1 construct: This cell line stably expresses the secreted Lucia luciferase reporter gene under the control of a minimal promoter; host or cells: HT29-Lucia AhR reporter cells
T1 sequence (P35869 11-848): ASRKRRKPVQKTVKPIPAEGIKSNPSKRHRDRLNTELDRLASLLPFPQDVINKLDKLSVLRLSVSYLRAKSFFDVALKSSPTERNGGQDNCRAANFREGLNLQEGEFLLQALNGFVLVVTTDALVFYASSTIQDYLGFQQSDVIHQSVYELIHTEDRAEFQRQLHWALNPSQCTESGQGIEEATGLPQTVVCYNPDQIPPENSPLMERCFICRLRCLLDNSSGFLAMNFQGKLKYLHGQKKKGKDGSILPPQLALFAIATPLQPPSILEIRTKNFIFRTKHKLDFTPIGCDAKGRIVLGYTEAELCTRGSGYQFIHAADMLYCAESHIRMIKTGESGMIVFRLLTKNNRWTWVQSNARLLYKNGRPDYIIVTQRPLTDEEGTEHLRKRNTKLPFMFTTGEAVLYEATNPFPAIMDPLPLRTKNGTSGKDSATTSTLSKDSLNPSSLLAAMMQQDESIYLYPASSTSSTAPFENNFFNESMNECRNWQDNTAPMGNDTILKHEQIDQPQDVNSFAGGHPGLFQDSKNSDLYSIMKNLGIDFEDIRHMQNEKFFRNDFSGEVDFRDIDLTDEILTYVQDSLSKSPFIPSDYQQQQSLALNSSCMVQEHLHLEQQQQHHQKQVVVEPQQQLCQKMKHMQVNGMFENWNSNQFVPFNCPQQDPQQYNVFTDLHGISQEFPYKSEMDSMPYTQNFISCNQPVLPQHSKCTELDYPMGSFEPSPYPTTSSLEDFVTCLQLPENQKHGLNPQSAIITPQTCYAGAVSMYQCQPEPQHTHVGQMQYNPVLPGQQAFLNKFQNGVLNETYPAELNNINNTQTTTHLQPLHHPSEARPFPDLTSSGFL
Put plainly: AhR transcription reporter assay (HT29-Lucia AhR cells). It is filed as cell-based. Particulars: 24 h. From the text: Our previous studies have shown that the activity of NAP-6 (2) and 10-Cl-BBQ (3) required the activation of the AhR pathway and the induction of CYP1 family of phase I metabolising enzymes ([Gilbert et al., 2020]; [Baker et al., 2021a]). Therefore, we sought to determine the activation of AhR using a stable AhR reporter assay in HT29-Lucia™ AhR cells, in the presence of each BBQ analogue (Figure 3). Activation of the AhR was indicated by enhanced luminescence caused by the translocation of the AhR to the nucleus of the cell and interaction with the xenobiotic response elements imbedded in the luciferase gene.
Stock solutions were prepared as follows and stored as 20 mM DMSO solutions at −20 °C. All cell lines were cultured in a humidified atmosphere 5% CO2 at 37 °C. The cancer cell lines were maintained in Dulbecco’s modified Eagle’s medium (DMEM) (Trace Biosciences, Australia) supplemented with 10% foetal bovine serum (FBS), 10 mM sodium bicarbonate, penicillin (100 IU/mL), streptomycin (100 μg/mL), and glutamine (4 mM). The non-cancer MCF10A cell line was cultured in DMEM:F12 (1:1) cell culture media, 5% heat inactivated horse serum, supplemented with penicillin (50 IU/mL), streptomycin (50 μg/mL), 20 mM Hepes, L-glutamine (2 mM), epidermal growth factor (20 ng/mL), hydrocortisone (500 ng/mL), cholera toxin (100 ng/mL), and insulin (10 μg/mL). The AhR reporter cell line HT29-Lucia™ (Invivogen, United States) was maintained in DMEM supplemented with 10% heat inactivated FBS, L-glutamine (2 mM), penicillin (100 IU/mL), streptomycin (100 μg/mL), 100 μg/mL Normocin™, and 100 μg/mL of the selective antibiotic Zeocin™. All cell lines were purchased from the American Type Culture Collection (ATCC), except for A2780 and A431 which were from the European Collection of Authenticated Cell Cultures (ECACC), and SJ-G2 cell line which was from Dr Mary Danks, St Jude Children’s Research hospital, Memphis, TN.
The activity of the AhR signalling pathway was measured using the stably transfected AhR cell line, HT29-Lucia™ (Invivogen, United States). This cell line stably expresses the secreted Lucia luciferase reporter gene under the control of a minimal promoter coupled with the human CYP1A1 gene entire regulatory sequence, containing six DREs. The Lucia luciferase reporter protein is readily measurable in the cell culture supernatant using QUANTI-Luc™. For the determination of AhR activity, 4 × 10^4 cells in 180 μL was plated into each well of a 96 well micro-titre plate in the absence of antibiotics and allowed to culture for 24 h prior to the addition of test compounds in a volume of 20 μL. At the indicated time, 20 μL of cell supernatant was transferred to a white luminometer plate and 50 µL of QUANTI-Luc was added immediately prior to reading the luminescence using a GloMax Explorer Luminescence Plate Reader. The promoter activity was conducted in duplicate and the values expressed as fold-change relative to DMSO (0.1%) treated cells. The AhR ligand, FICZ (6-formylindolo[3,2-b]carbazole) and AhR inhibitor CH223191 were included for study as positive and negative controls, respectively. […] Results are presented as the mean ± standard error of the mean (SEM) of analysis conducted in duplicate and repeated on three separate occasions.

The test system of the next series is CYP1B1 mRNA. Description: Gene expression analysis (qPCR) in MDA-MB-468 cells. It is filed as cell-based, human. Particulars: 1.0 μM, 6 h. The method, then:
(§1) These analogues were specifically chosen because they were synthesised without the production of regioisomers, their structural differences are small while their biological differences are large, c.f. […] Neither analogue altered the expression of SULT1A1 (Figure 4D).
(§2) Gene expression was examined in MDA-MB-468 cells following 6 h treatment. Total RNA was extracted using the RNeasy Mini Kit (Qiagen) according to the manufacturer’s instructions. One µg of RNA was reverse transcribed using the QuanitTect Reverse Transcription Kit (Qiagen) according to the manufacturer’s instructions. Rotor-Gene SYBR Green PCR Kit (Qiagen) was used to perform qPCR on a Rotor-Gene 3,000 Thermo-Cycler Instrument using β2-microglobulin as a housekeeping gene (Qiagen). The primer sequences were purchased from Qiagen as follows: AhR (QT02422938), CYP1A1 (QT00012341), CYP1B1 (QT00209496), SULT1A1 (QT01665489), and β2M (QT00088935). HotStar Taq activation (95 °C for 5 min) was followed by 40 cycles of denaturation (95 °C for 5 s), and annealing/extension (60 °C for 10 s). The comparative Ct value method was used for data analysis. Results are presented as the mean ± standard error of the mean (SEM) of analysis conducted in duplicate and repeated on two separate occasions. Significant test results were determined using T-test analysis at p < 0.01 with a two tail distribution.

A further series has as its system CYP1A1 mRNA. Described as above. The class given is cell-based, human. Particulars: 1.0 μM, 6 h. On the procedure:
as §1, §2

Series [1] concerns broad panel of cancer cell lines and non-cancer breast cell line MCF10A. Particulars: ref Gilbert et al., 2017; Gilbert et al., 2020; cited from earlier work.
A short description of series [2]: Solubility in the compound testing media. It is filed as physicochemical.
Series [3] has as its system MCF10A normal breast cells. Description: MTT growth inhibition with CYP1 (αNF) or SULT1A1 (quercetin) inhibitor. It is filed as cell-based, human. Particulars: 3 and 5 at 0.1 µM, αNF 10 µM, quercetin 5 µM, 72 h (Supp Figure 1). The method, then:
This analysis confirms that both CYP1 and SULT1A1, activity is needed to induce the growth inhibitory effect of the BBQ analogue.
Cells in logarithmic growth were transferred to 96-well plates. Cytotoxicity was determined by plating cells in duplicate in 100 μL medium at a density of 2,500–4,000 cells/well in 96 well plates. On day 0, (24 h after plating) when the cells were in logarithmic growth 100 μL medium with or without the test agent was added to each well. After 72 h drug exposure growth inhibitory effects were evaluated using the MTT (3-[4,5-dimethylthiazol-2-yl]-2,5-diphenyltetrazolium bromide) assay with absorbance read at 540 nm. An eight-point dose response curve was produced, using MS Excel software. From these dose-response curves, the GI50 value was calculated, representing the drug concentration at which cell growth is 50% inhibited based on the difference between the optical density values on day 0 and those at the end of drug exposure ([Bradshaw et al., 2008]; [Zhang et al., 2009]). Each data point was conducted in duplicate and the mean ± S.E.M. calculated from four to five replicates (n = 4 or 5), which were performed on separate occasions and separate cell line passages. Where shown, significant test results were determined using T-test analysis at p < 0.01 and p < 0.05 with a two tail distribution.
Supp Figure 1. CYP1 and SULT1A1 inhibition ameliorates the effect of 3 and 5. Growth inhibition (72 h, MTT assay) of 3 and 5 (0.1 µM) in the presence of the CYP1 family inhibitor, α-naphthoflavone (αNF, 10 µM) and SULT1A1 inhibitor, quercetin (qu, 5 µM) in (A) MDA-MB-468 breast cancer cells and (B) MCF10A normal breast cells. Significant differences are at the P < 0.01 ** level, using a paired T-test with a two-tailed distribution.

As for “6-formylindolo[3,2-b]carbazole [FICZ, reference compound]”, at AhR (0.5 μM, positive control), the “AhR activation, Fold Reporter Induction” value is 2.7 fold. Further, the “CYP1B1 Fold change (mRNA vs DMSO control)” value in the series on CYP1B1 mRNA is listed as 3.7 fold. The “CYP1A1 Fold change (mRNA vs DMSO control)” value with CYP1A1 mRNA is given as 19 fold. Regarding `Cc1ccccc1N=Nc1ccc(NC(=O)c2ccnn2C)c(C)c1` [CH223191, reference compound], at AhR (2.5 μM, negative control), the “AhR activation, Fold Reporter Induction” value was determined as 0.7 fold.

As for `N#C/C(=C\c1ccc[nH]1)c1ccc(Cl)c(Cl)c1` [Compound 1, (Z)-2-(3,4-dichlorophenyl)-3-(1H-pyrrol-2-yl)acrylonitrile], the “selective targeting of certain breast cancer cell lines compared with normal breast cells or other tumour types (fold)” value in series [1] was “more than 500 fold”.

In the case of `O=c1c2cccc3cccc(c32)c2nc3c(Cl)cc(Cl)cc3n12` [Compound 6, 10,12-Dichloro-7H-benzo[de]benzo[4,5]imidazo[2,1-a]isoquinolin-7-one], the melting point lay in the range of 292 to 294 °C. For the same molecule, the “solubility in the compound testing media” value in series [2] is on record as “insoluble”. Take `O=c1c(O)c(-c2ccc(O)c(O)c2)oc2cc(O)cc(O)c12` [quercetin, reference compound]: in series [3], the “effect on growth in normal MCF10A cells” value is “Neither 3, 5, αNF, or quercetin affected growth”.

As for `O=c1cc(-c2ccccc2)oc2c1ccc1ccccc12` [α-naphthoflavone, reference compound], the “effect on growth in normal MCF10A cells” value in series [3] is reported as “Neither 3, 5, αNF, or quercetin affected growth”.
